The values below come from patent US4256748A, “Imidazo[2,1-b]quinazolin-2(3H)-ones and pharmaceutical compositions for treatment and prophylaxis of cardiac insufficiency and cardiac failure” (Hoffmann-La Roche Inc., priority 1977, dated 1981).

The test system of one series is conscious sheepdogs. The series is described as follows: Positive inotropic activity and heart frequency after oral administration to conscious sheepdogs. It counts as in vivo. The procedure: The positive inotropic activity was measured after the oral administration of a test substance to conscious sheepdogs. For this purpose, the animals are provided with an implanted pressure-telemetry system, so that the pressure receiver is fixed in the left ventricle. The left ventricular pressure is sent from the animal via the implanted radio transmitter and received via a suitable antenna and receiver system, demodulated and amplified. By differentiation of the ascending side of the left ventricular pressure (LVP), the maximum pressure increase rate (dLVP/dtmax) which represents the contractility parameter is calculated. Simultaneously, the heart frequency is recorded via a cardiotachograph. Under the heading inotropy in Table II, the percentage variation (Δ%) of dLVP/dtmax and the duration of activity in minutes (min) are indicated. Under the heading tachycardia in Table II, the percentage variations of the heart frequency (Δ%) after administration of the test substance and the duration of activity in minutes (min) are indicated.

Series [1] deals with blood platelet aggregation. The series is described as follows: ADP-induced blood platelet aggregation, rabbit plasma (aggregometer method of BORN). It counts as cell-based. The following applies: Oryctolagus cuniculus, 1 min, 37° C., 1 minute, maximum aggregation velocity, read-out: EC 50, ADP-induced blood platelet aggregation, rabbit plasma. The procedure:
(§1) The maximum aggregation velocity was taken as the test parameter and the effective concentration (EC50) was ascertained from dosage-activity curves. Rabbit plasma was obtained by centrifugation from arterial blood treated with citrate (9 mM). 1 ml. of plasma was treated with 10 μl of test solution and the mixture was incubated at 37° C. for 1 minute, whereupon 8 μl of collagen-fibril suspension or 10 μl. of adenosine diphosphate (ADP) in 10^-4 N sodium chloride solution were added. Plasma incubated with dimethylsulfoxide served as the control. |Collagen- and ADP-induced blood platelet aggregation

For series [2], the system named is blood platelet aggregation. The series is described as follows: Collagen-induced blood platelet aggregation, human plasma (aggregometer method of BORN). The class given is cell-based. To be noted: 10 min, 37° C., maximum aggregation velocity, read-out: EC 50, collagen-induced blood platelet aggregation, human plasma. The procedure: The maximum aggregation velocity was taken as the test parameter and the effective concentration (EC50) was ascertained from dosage-activity curves. Human plasma was obtained by centifugation from venous blood treated with citrate (10.6 mM). 0.18 ml. of plasma was treated with 10 μl of an aqueous suspension of the test substance and the mixture was incubated at 37° C. for 10 minutes, whereupon the aggregation was initiated by the addition of 10 μl of collagen-fibril suspension. |Collagen- and ADP-induced blood platelet aggregation

Series [3] concerns blood platelet aggregation. Description: Collagen-induced blood platelet aggregation, rabbit plasma (aggregometer method of BORN). The class given is cell-based. To be noted: Oryctolagus cuniculus, 1 min, 37° C., 1 minute, maximum aggregation velocity, read-out: EC 50, collagen-induced blood platelet aggregation, rabbit plasma. The procedure: as §1

Structures can show the parent of a compound that is named as a salt.

In the case of `Cc1cccc2c1CN1C(=N2)NC(=O)[C@H]1C.Cl` [D-1,5-dihydro-3,6-dimethylimidazo[2,1-b]-quinazolin-2(3H)-one hydrochloride], in the series with conscious sheepdogs (10 mg/kg), the “Heart frequency Min (duration of activity; tachycardia)” value (shortened to “Heart frequency Min”) came to 480 min, the “Heart frequency Δ % (percentage variation; tachycardia)” value turned out to be 63%, the “Inotropy Min (duration of activity)” value stood at 440 min and the “Inotropy Δ % (percentage variation of dLVP/dtmax)” value amounted to 82%. Further, in series [1], the EC50 was 2.2 µM. The EC50 in series [2] is 2.3 µM. Also, the EC50 in series [3] came to 0.19 µM.
On to `Cc1ccc2c(c1)CN1C(=N2)NC(=O)[C@H]1C` [D-1,5-dihydro-3,7-dimethylimidazo[2,1-b]-quinazolin-2(3H)-one hydrochloride], for which the values for the EC50 in series [1], in series [2] and in series [3] were 19 µM, 3.4 µM and 3.1 µM, respectively.
For `Cc1cccc2c1N=C1NC(=O)[C@@H](C)N1C2` [D-1,5-dihydro-3,9-dimethylimidazo[2,1-b]-quinazolin-2(3H)-one hydrochloride] the same measures were 32 µM, 26 µM and 3 µM.
As for `C[C@@H]1C(=O)NC2=Nc3cccc(Cl)c3CN21.Cl` [D-6-chloro-1,5-dihydro-3-methyl-imidazo[2,1-b]quinazolin-2(3H)-one hydrochloride], in the series on conscious sheepdogs (5 mg/kg), the “Heart frequency Min” value is 115 min, the “Heart frequency Δ % (percentage variation; tachycardia)” value is on record as 28%, the “Inotropy Min (duration of activity)” value came out at 145 min and the “Inotropy Δ % (percentage variation of dLVP/dtmax)” value was determined as 93%.
Take `Cc1ccc2c(c1)CN1C(=N2)NC(=O)[C@@H]1C` [L-1,5-Dihydro-3,7-dimethyl-imidazo[2,1-b]quinazolin-2(3H)-one hydrochloride]: the EC50 in series [1] was determined as 77 µM; in series [2], 33 µM; in series [3] it was 22 µM.
With `Cc1cccc2c1CN1C(=N2)NC(=O)[C@@H]1C` [L-1,5-dihydro-3,6-dimethylimidazo[2,1-b]-quinazoline-2(3H)-one hydrochloride], the EC50 is 11 µM in series [1], 6.2 µM in series [2] and 0.93 µM in series [3].
With `Cc1cccc2c1N=C1NC(=O)[C@H](C)N1C2` [L-1,5-dihydro-3,9-dimethylimidazo[2,1-b]quinazolin-2(3H)-one], in the series with conscious sheepdogs (10 mg/kg), the “Heart frequency Min” value worked out at 100 min, the “Heart frequency Δ % (percentage variation; tachycardia)” value was found to be 16%, the “Inotropy Min (duration of activity)” value is 120 min and the “Inotropy Δ % (percentage variation of dLVP/dtmax)” value is 43%. Moreover, the EC50 in series [1] is 60 µM. For the same compound, in series [2], the EC50 is 49 µM. For the same compound, the EC50 in series [3] is 18 µM.
In the case of `Cc1cccc2c1CN1C(=N2)NC(=O)[C@@H]1CO` [L-1,5-dihydro-3-hydroxymethyl-6-methyl-imidazo[2,1-b]quinazoline-2(3H)-onehydrochloride], the EC50 in series [2] amounted to 14 µM.
